From article PMC9607081 (Membranes, 2022) come the findings set out here.

Positions count from the first letter of the chain named. Read-outs that look alike come from different tables or passages of the source.

One test has as its target T1, human GlyR α1 subunit WT (Homo sapiens, UniProt P23415).
T1 construct: expressed in transfected cells; host or cells: Xenopus laevis oocytes injected with receptor mRNA
T1 sequence (P23415 29-457): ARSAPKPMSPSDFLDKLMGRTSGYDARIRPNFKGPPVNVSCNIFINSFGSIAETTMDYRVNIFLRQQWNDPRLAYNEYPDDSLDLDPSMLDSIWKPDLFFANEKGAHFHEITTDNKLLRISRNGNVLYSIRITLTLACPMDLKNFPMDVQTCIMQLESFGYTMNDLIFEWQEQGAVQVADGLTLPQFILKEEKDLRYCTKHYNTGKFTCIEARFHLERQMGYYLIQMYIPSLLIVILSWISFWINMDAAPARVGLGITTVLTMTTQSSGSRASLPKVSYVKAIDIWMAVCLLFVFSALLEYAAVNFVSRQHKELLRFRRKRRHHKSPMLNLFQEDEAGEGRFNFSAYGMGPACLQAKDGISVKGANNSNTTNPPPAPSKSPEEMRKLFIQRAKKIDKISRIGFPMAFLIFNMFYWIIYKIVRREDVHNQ
The test is described as follows: Two-electrode voltage clamp of Xenopus oocytes expressing WT GlyR. Type of test: cell-based. As to conditions: for nH (Hill coefficient): Table 1, n = 5; for EC50: Table 1, −60 mV; for % ImaxTau /ImaxGly: Tau maximal current relative to Gly maximal current. As to the method:
(§1) Injection volumes were 50–100 nL per cell.
(§2) All experiments were performed at 22–25 °C. […] The holding potential was −60 mV unless otherwise specified.

In test [1] the test system is human GlyR α1 subunit P230 (M1) substituted with 2MeP. To be noted: Table 2, P230 2MeP, n = 4. The procedure: (§3) The cDNA for the human GlyR α1 subunit was in pGEMHE (ThermoFischer Scientific, Bishops Stortford, UK). Site-directed mutagenesis was performed using QuikChange (Agilent Technologies, Milton Keynes, UK) to generate the appropriate codon. For non-canonical amino acid mutants and conventional mutants generated by nonsense suppression, the site of interest was mutated to the TAG stop codon. Receptor mRNA was then prepared by in vitro runoff transcription using the Ambion T7 mMessage mMachine kit (ThermoFischer Scientific, Bishops Stortford, UK). Noncanonical amino acids were ligated to tRNA as previously described.
(§4) Stage V-VI oocytes of Xenopus laevis were harvested and injected with RNAs as described previously. For nonsense suppression experiments, each cell was injected with 50–100 ng each of receptor mRNA and tRNA charged with the appropriate Pro analogue ~48 h before recording. For wild type and conventional mutants, each cell received a single injection of 10–25 ng of receptor mRNA ~24 h before recording. Injection volumes were 50–100 nL per cell.
(§5) As a negative control for suppression experiments at each site, unligated tRNA was co-injected with mRNA in the same manner as charged tRNA. […] Pro recovery (injecting tRNA charged with Pro to regenerate a wild type channel via nonsense suppression) was used alongside Pro analogues as a positive control.
(§6) Two-electrode voltage clamping of Xenopus oocytes was performed using standard electrophysiological procedures as previously, using an OpusXpress system (Axon Instruments, Inc., Union City, CA, USA). All experiments were performed at 22–25 °C. […] The holding potential was −60 mV unless otherwise specified. […] Data were analysed using Prism (GraphPad Software Inc., San Diego, CA, USA), fitting concentration-response data to the four-parameter logistic equation. Statistical analysis was performed using ANOVA with a Dunnett’s multiple comparisons post test.

In test [2] the test system is human GlyR α1 subunit P230 (M1) substituted with Pip. As to the method:
as §3, §4, §5, §6

The subject of test [3] is human GlyR α1 subunit P30 (α1β1L) substituted with CFP. The procedure: as §3, §4, §5, §6
The subject of test [4] is human GlyR α1 subunit P30 (α1β1L) substituted with TFP. The procedure:
as §3, §4, §5, §6

The test system of test [5] is human GlyR α1 subunit P96 (loopA) substituted with 3MeP. As to conditions: Table 2, P96 3MeP, n = 4. The procedure:
as §3, §4, §5, §6

The target in test [6] is human GlyR α1 subunit P96 (loopA) substituted with Pro (Homo sapiens, UniProt P23415). To be noted: Table 2, n = 5. As to the method:
as §3, §4, §5, §6

The subject of test [7] is human GlyR α1 subunit P96 (loopA) substituted with TFP. As to the method: as §3, §4, §5, §6
Test [8] has as its target T2, human GlyR α1 subunit P146 (CysL) substituted with Pro (Homo sapiens, UniProt P23415).
T2 construct: expressed in transfected cells; host or cells: Xenopus laevis oocytes injected with receptor mRNA
T2 sequence (P23415 29-457): T1 sequence (P23415 29-457)
The test is described as follows: TEVC, oocytes, nonsense suppression, P146 Pro recovery. As to conditions: for EC50: Table 3, nonsense suppression. Type of test: cell-based. As to the method:
Injection volumes were 50–100 nL per cell. […] The holding potential was −60 mV unless otherwise specified.

For test [9], the target named is T3, human GlyR α1 subunit P146 (CysL) substituted with CFP (Homo sapiens, UniProt P23415, P174X).
T3 sequence (P23415 29-457 P174X): T1 sequence (P23415 29-457) with P146X
The test is described as follows: TEVC, oocytes, nonsense suppression, P146 CFP. The test is classed as cell-based. As to the method:
as §3, §4, §5, §6

Test [10] concerns the target T4, human GlyR α1 subunit P146 (CysL) substituted with Pip (Homo sapiens, UniProt P23415, P174X).
T4 sequence (P23415 29-457 P174X): T1 sequence (P23415 29-457) with P146X
The test is described as follows: TEVC, oocytes, nonsense suppression, P146 Pip. The test is classed as cell-based. To be noted: for EC50: n = 3. As to the method:
as §3, §4, §5, §6

For test [11], the target named is T5, human GlyR α1 subunit P30A (Homo sapiens, UniProt P23415, P58A).
T5 construct: expressed in transfected cells; host or cells: Xenopus laevis oocytes injected with receptor mRNA
The test is described as follows: Two-electrode voltage clamp of Xenopus oocytes expressing P30A GlyR. Type of test: cell-based. As to conditions: n = 5. As to the method:
as §1, §2

Setting [12] is: Table 2, nonsense suppression, n = 4.
Setting [13] is: Table 2, nonsense suppression, n = 6.
Setting [14] is: Table 2, nonsense suppression, n = 5.

T5 sequence (P23415 29-457 P58A): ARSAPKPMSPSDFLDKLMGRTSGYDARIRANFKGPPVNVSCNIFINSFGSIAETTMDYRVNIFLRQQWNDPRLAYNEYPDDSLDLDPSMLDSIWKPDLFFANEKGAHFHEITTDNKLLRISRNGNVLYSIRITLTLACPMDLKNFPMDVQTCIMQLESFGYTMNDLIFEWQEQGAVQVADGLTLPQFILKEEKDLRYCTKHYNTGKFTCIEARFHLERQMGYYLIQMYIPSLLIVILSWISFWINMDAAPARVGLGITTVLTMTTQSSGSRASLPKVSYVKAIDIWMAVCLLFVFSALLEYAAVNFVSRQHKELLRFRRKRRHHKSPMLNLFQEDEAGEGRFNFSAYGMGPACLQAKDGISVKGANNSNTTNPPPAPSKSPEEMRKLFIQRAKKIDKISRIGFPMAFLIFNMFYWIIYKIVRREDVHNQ

For `NCC(=O)O` [Gly, glycine], the “nH (Hill coefficient)” value on human GlyR α1 subunit WT was 2.3 ± 0.5. Besides, the nH in [1] turned out to be 1.6 ± 0.5; in test [2] (Table 2, n = 4), 1.1 ± 0.2; in [3] (Table 2, n = 6), 2.8 ± 0.7; in [4] (Table 2, n = 5), 2.7 ± 1.3; in test [5], 3.0 ± 0.2; in [6], 2.7 ± 1.1. Moreover, the nH turned out to be 2.9 ± 0.7 in [7] (Table 2, n = 4); 2.5 ± 0.4 in test [8] (Table 2, n = 6); 3.2 ± 1.6 in test [8] (Table 3, n = 4); 3.7 ± 0.6 in [9] (Table 2, P146 CFP, n = 6); 3.0 ± 0.5 in test [9] (Table 3, P146 CFP, n = 3); 1.9 ± 0.7 in test [10] (Table 2, n = 5). In addition, in [10] (Table 3, n = 3), the nH stood at 2.7 ± 0.9. Further, the EC50 worked out at 177 µM in test [1] (nonsense suppression); 68 µM in [2] (setting [12]); 150 µM in test [3] (setting [13]); 97 µM in [4] (setting [14]); 514 µM in test [5] (nonsense suppression); 127 µM in [7] (setting [12]). Also, the pEC50 in test [1] (nonsense suppression) is on record as 3.751 ± 0.08 M; in test [2] (setting [12]), 4.166 ± 0.08 M; in [3] (setting [13]) it was 3.825 ± 0.06 M; in [4] (setting [14]), 4.013 ± 0.05 M; in [5] (nonsense suppression), 3.289 ± 0.02 M; in [7] (setting [12]) it was 3.898 ± 0.03 M.
On to `NCCS(=O)(=O)O` [Tau, taurine], for which the “nH (Hill coefficient)” value at human GlyR α1 subunit WT is 1.7 ± 0.3. For the same molecule, the EC50 was 583 µM on human GlyR α1 subunit WT (n = 5, read-out: EC50); 582 µM at human GlyR α1 subunit WT (n = 5, read-out: pEC50 (converted)); 1230 µM in test [11]; 1030 µM in test [8] (n = 4, read-out: EC50); 1040 µM in test [8] (n = 4, read-out: pEC50 (converted)); 579 µM in test [9]. For the same molecule, the EC50 in [10] (EC50, Table 3, nonsense suppression) was 757 µM; in test [10] (pEC50, Table 3, nonsense suppression), 757 µM. The “% ImaxTau /ImaxGly” value at human GlyR α1 subunit WT (n = 5) is 50 ± 4%; on human GlyR α1 subunit WT (n = 5, listed as Taurine), 50%; in test [8] (Table 3, n = 4) it was 43 ± 5%. In addition, the ImaxTau/ImaxGly in test [11] stood at 60 ± 5%. The nH is 1.5 ± 0.3 in test [8] (Table 3, n = 4); 2.1 ± 0.2 in test [9] (Table 3, P146 CFP, n = 3); 1.8 ± 0.3 in test [10] (Table 3, n = 3). For the same molecule, the Emax was 71 ± 3% in [9] (Table 3, P146 CFP, n = 3, read-out: % ImaxTau /ImaxGly) and 64 ± 7% in test [10] (Table 3, n = 3, read-out: % ImaxTau /ImaxGly).
